In patent US9765158B2, “Methods for preparation of fucose-linked site specific conjugates of proteins with toxins, adjuvants, detection labels and pharmacokinetic half life extenders” (Probiogen AG, priority 2011, dated 2017):

Key:
avidin = avidin (Gallus gallus, UniProt P02701); details: avidin-biotin complex; cited from earlier work
[1] = tested on: Antibody expressing CHO cells carrying the RMD transgene; assay: Fucose feeding experiment: rescue of core-fucosylation of secreted antibody, PSA lectin blotting; assay type: cell-based, Chinese hamster; details: media and feeds supplemented with 0.03 mM; cells grown 12 days; supernatant lectin blot (FIG. 4)
Procedure: Currently, Fucose analogs are not routinely used in cell culture and are thus still expensive. In order to identify the most cost efficient fucose analogue concentration, we needed to determine the minimum required amount of fucose analogue that was sufficient to completely rescue the fucosylation status of heterologously expressed antibodies secreted from RMD-co-expressing cells. Antibody expressing CHO cells carrying the RMD transgene were cultured in medium containing varying concentrations of fucose and fed with a feed mix supplemented with that same amount of fucose. Cells were grown for 12 days before harvesting the cell culture supernatant. The supernatants were analysed by lectin blotting using biotinylated PSA lectin (pisum sativum) that specifically recognizes the alpha-1,6-linked core-fucose. Lectin blotting was conducted using the Vecstatin Elite ABC Kit (Vector Labs, USA) according to the manufacturers instructions.

Chain of avidin (P02701 25-152, species assumed): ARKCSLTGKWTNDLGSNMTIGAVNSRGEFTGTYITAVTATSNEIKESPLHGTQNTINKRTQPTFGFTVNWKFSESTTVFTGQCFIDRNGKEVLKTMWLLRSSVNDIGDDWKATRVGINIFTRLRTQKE

Structure (SMILES) | Ka (avidin) [M⁻¹] | rescue of core-fucosylation [1]
O=C(O)CCCC[C@@H]1SC[C@@H]2NC(=O)N[C@@H]21 [biotin] | 1015 | –
C[C@H](O)[C@@H](O)[C@@H](O)[C@H](O)C=O [Fucose] | – | almost complete rescue
